#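 Briefly, cells in 96-well plates were exposed to five compound concentrations for 48 h, and endpoints were estimated by linear interpolation. Abbreviation: GI50, concentration required for 50% inhibition of growth. Definition used: TGI = concentration required for complete inhibition of growth.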
# Legend:
# Experiment in all cases: inhibition of tumour cell growth, NCI panel, 48 h
# A549 NSCLC = tested on: A549 NSCLC
# SK-MEL-28 melanoma = tested on: SK-MEL-28 melanoma
# SNB-19 CNS = tested on: SNB-19 CNS
# OVCAR-8 ovarian = tested on: OVCAR-8 ovarian
# HOP-62 NSCLC = tested on: HOP-62 NSCLC
# MCF7 breast = tested on: MCF7 breast
# MALME-3M melanoma = tested on: MALME-3M melanoma
# OVCAR-3 ovarian = tested on: OVCAR-3 ovarian
# SNB-75 CNS = tested on: SNB-75 CNS
# K-562 leukemia = tested on: K-562 leukemia
Compound,TGI (A549 NSCLC),TGI (SK-MEL-28 melanoma),TGI (SNB-19 CNS),TGI (OVCAR-8 ovarian),TGI (HOP-62 NSCLC),TGI (MCF7 breast),TGI (MALME-3M melanoma),TGI (OVCAR-3 ovarian),TGI (SNB-75 CNS),TGI (K-562 leukemia),GI50 (A549 NSCLC),GI50 (SK-MEL-28 melanoma),GI50 (SNB-19 CNS),GI50 (OVCAR-8 ovarian),GI50 (HOP-62 NSCLC),GI50 (MCF7 breast),GI50 (MALME-3M melanoma),GI50 (OVCAR-3 ovarian),GI50 (SNB-75 CNS),GI50 (K-562 leukemia)
O=C(O)CC1(CC(=O)O)Nc2ccccc2SC1=O,> 100 µM,> 100 µM,> 100 µM,> 100 µM,> 100 µM,> 100 µM,> 100 µM,> 100 µM,> 100 µM,> 100 µM,,,,,,,,,,
CC(CCC(=O)O)C1CCC2C3C(O)CC4CC(O)CCC4(C)C3CC(O)C12C (configuration not stated),> 100 µM,> 100 µM,> 100 µM,> 100 µM,> 100 µM,> 100 µM,> 100 µM,> 100 µM,> 100 µM,> 100 µM,,,,,,,,,,
C[C@]12CCc3sc(Nc4ccc(O)cc4)nc3C1=CC[C@@H]1[C@@H]2CC[C@]2(C)C(=O)CC[C@@H]12,> 100 µM,4.75 µM,> 100 µM,> 100 µM,12.6 µM,4.26 µM,4.03 µM,3.38 µM,> 100 µM,> 100 µM,4.42 µM,2.08 µM,10.9 µM,3.22 µM,3.28 µM,1.66 µM,1.81 µM,1.71 µM,2.76 µM,2.96 µM
CN1CCN(c2cc(-c3cc4ccccc4o3)oc(=O)c2C#N)CC1,> 100 µM,> 100 µM,> 100 µM,> 100 µM,,,> 100 µM,,> 100 µM,> 100 µM,,,,,,,,,,
O=C(NN1C(=O)CSC1c1ccc(C(F)(F)F)cc1)c1ccncc1 (configuration not stated),> 100 µM,> 100 µM,> 100 µM,> 100 µM,> 100 µM,> 100 µM,> 100 µM,> 100 µM,> 100 µM,> 100 µM,,,,,,,,,,
CCSc1nc(=[N+]2CCCC2)ss1,> 100 µM,> 100 µM,> 100 µM,> 100 µM,> 100 µM,41.1 µM,> 100 µM,48.2 µM,> 96.6 µM,24.1 µM,,,,,,,,,,

# — PubChem BioAssay (NCI)
